# Source: ChEMBL document CHEMBL1127810, “Synthesis of high specific activity [3H]-9-cis-retinoic acid and its application for identifying retinoids with unusual binding properties” (J Med Chem, 1994)
# pEC50, pIC50: −log10 of the molar value.
# How the values were obtained:
# [1] = molecular target: T1, Retinoic acid receptor RXR-beta (Homo sapiens, UniProt P28702); assay: Binding affinity against retinoic Acid X beta receptors co-transfected into CV-1 cells; type: cell-based
# T1 sequence (P28702 whole entry): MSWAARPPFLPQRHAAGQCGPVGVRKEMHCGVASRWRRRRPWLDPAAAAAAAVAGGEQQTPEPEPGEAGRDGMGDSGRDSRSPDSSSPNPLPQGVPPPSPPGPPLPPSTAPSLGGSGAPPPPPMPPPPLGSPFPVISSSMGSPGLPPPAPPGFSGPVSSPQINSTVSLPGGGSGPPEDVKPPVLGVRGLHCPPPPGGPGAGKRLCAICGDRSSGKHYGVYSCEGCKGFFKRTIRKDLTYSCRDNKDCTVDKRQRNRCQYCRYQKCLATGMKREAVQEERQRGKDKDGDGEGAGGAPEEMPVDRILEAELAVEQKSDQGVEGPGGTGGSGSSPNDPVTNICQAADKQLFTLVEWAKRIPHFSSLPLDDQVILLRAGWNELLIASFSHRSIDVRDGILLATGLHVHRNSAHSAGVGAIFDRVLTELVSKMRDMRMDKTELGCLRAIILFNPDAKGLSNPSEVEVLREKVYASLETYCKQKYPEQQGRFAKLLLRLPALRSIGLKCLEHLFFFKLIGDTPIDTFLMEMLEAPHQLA
# [2] = molecular target: T1, Retinoic acid receptor RXR-beta; assay: Binding affinity against retinoic Acid X beta receptor using [3H]- -9-cis-Retinoic Acid in competitive binding assay
# [3] = molecular target: T2, Retinoic acid receptor RXR-alpha (Homo sapiens, UniProt P19793); assay: Binding affinity against retinoic Acid X alpha receptors co-transfected into CV-1 cells; type: cell-based
# T2 sequence (P19793 whole entry): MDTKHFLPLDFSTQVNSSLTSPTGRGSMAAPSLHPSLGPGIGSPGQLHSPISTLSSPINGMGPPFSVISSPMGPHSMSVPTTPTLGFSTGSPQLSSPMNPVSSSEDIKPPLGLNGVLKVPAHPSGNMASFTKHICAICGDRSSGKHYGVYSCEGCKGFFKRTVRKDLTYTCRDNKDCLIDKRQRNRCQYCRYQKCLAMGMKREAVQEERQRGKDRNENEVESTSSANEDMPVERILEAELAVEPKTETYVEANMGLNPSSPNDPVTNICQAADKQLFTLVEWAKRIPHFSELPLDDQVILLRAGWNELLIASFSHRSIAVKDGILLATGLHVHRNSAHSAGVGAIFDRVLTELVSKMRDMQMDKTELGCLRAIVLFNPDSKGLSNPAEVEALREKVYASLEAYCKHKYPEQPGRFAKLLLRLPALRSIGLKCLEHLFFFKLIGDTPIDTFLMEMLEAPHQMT
# [4] = molecular target: T2, Retinoic acid receptor RXR-alpha; assay: Binding affinity against retinoic Acid X alpha receptor using [3H]- -9-cis-Retinoic Acid in competitive binding assay
# [5] = molecular target: T3, Retinoic acid receptor RXR-gamma (Homo sapiens, UniProt P48443); assay: Binding affinity against retinoic Acid X gamma receptors co-transfected into CV-1 cells; type: cell-based
# T3 sequence (P48443 whole entry): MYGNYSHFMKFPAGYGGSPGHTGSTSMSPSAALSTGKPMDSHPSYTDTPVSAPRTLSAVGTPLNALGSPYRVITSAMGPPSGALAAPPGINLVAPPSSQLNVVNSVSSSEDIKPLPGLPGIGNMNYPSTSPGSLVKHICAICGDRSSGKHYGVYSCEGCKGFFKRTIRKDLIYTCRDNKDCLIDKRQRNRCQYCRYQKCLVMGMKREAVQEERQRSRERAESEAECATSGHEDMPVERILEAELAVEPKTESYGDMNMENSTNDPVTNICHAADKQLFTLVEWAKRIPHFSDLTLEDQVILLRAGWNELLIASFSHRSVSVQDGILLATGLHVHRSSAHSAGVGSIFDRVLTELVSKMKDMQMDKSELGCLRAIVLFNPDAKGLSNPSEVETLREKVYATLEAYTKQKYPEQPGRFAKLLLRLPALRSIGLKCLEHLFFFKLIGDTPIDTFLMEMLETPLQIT
# [6] = molecular target: T3, Retinoic acid receptor RXR-gamma; assay: Binding affinity against retinoic Acid X gamma receptor using [3H]- -9-cis-Retinoic Acid in competitive binding assay
# [7] = molecular target: T4, Retinoic acid receptor alpha (Homo sapiens, UniProt P10276); assay: Binding affinity against retinoic Acid alpha receptors co-transfected into CV-1 cells; type: cell-based
# T4 sequence (P10276 whole entry): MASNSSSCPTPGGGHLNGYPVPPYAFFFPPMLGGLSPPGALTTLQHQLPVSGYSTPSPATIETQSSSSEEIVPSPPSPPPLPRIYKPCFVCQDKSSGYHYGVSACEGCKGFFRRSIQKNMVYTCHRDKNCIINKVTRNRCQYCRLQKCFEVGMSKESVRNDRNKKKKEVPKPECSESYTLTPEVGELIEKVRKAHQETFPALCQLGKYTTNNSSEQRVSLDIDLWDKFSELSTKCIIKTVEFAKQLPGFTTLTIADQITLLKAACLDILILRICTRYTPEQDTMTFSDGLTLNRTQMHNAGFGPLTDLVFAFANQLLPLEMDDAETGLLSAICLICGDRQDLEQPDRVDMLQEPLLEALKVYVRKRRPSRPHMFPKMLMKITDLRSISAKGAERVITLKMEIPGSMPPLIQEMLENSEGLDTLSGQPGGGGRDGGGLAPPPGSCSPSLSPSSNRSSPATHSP
# [8] = molecular target: T5, Retinoic acid receptor beta (Homo sapiens, UniProt P10826); assay: Binding affinity against retinoic Acid beta receptors co-transfected into CV-1 cells; type: cell-based
# T5 sequence (P10826 whole entry): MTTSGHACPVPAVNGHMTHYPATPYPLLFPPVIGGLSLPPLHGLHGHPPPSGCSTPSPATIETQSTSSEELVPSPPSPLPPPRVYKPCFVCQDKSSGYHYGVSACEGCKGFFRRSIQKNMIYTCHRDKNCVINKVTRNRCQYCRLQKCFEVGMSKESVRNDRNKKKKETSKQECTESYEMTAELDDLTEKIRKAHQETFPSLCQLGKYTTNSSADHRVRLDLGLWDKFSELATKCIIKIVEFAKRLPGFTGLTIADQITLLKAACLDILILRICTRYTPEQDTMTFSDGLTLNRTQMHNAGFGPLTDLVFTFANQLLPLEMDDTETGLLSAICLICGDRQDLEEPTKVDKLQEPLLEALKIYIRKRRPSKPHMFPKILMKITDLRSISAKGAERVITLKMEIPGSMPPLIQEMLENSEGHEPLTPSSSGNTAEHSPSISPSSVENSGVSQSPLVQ
# [9] = molecular target: T5, Retinoic acid receptor beta; assay: Binding affinity against retinoic Acid beta receptor using [3H]- -9-cis-Retinoic Acid in competitive binding assay
# [10] = molecular target: T4, Retinoic acid receptor alpha; assay: Binding affinity against retinoic Acid alpha receptor using [3H]- -9-cis-Retinoic Acid in competitive binding assay
# [11] = molecular target: T6, Retinoic acid receptor gamma (Homo sapiens, UniProt P13631)
# T6 sequence (P13631 whole entry): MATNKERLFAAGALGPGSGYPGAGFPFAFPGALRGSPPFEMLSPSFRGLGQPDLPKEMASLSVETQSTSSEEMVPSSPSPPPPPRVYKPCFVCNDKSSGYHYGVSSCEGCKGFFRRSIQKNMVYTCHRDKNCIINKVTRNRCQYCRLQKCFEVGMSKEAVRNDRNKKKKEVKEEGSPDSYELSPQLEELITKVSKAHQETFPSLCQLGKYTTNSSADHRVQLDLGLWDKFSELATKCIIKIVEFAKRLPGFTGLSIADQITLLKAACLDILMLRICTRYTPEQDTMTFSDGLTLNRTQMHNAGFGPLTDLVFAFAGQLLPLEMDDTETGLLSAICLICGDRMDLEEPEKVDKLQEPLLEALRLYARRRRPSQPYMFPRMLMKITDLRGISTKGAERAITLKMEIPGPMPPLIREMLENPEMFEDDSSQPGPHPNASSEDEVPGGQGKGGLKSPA
# Description: Binding affinity against retinoic Acid gamma receptors co-transfected into CV-1 cells
# [12] = molecular target: T6, Retinoic acid receptor gamma; remark: listed apart in the source
pEC50 [1],pIC50 [2],pEC50 [3],pIC50 [4],pEC50 [5],pIC50 [6],pEC50 [7],pEC50 [8],pIC50 [9],pIC50 [10],pEC50 [11],pIC50 [12],Structure (SMILES)
< 5.00,< 6.00,< 5.00,< 6.00,< 5.00,< 6.00,–,–,–,–,–,–,C/C(=C\c1ccc(C(=O)O)cc1)c1ccc2c(c1)C(C)(C)CCC2(C)C
5.70,7.30,5.54,6.49,5.59,8.00,5.77,6.51,7.12,7.00,7.64,6.60,CCc1cc2c(cc1/C(C)=C/c1ccc(C(=O)O)cc1)C(C)(C)CCC2(C)C
5.93,< 6.00,5.92,7.49,5.82,7.00,6.47,6.64,5.93,6.20,6.74,6.19,C/C(=C\c1ccc(C(=O)O)cc1)c1cc2c(cc1C)C(C)(C)CCC2(C)C
< 5.00,7.30,6.52,6.49,5.57,8.00,< 5.00,< 5.00,6.82,< 6.00,6.57,< 6.00,C/C(=C\c1ccc(C(=O)O)cc1)c1cc2c(cc1C(C)C)C(C)(C)CCC2(C)C
